Each molecule was assayed on TGFβ1-induced fibulin-1 ECM deposition in primary human lung IPF-fibroblasts (phLFs) (assay: Assessing N23P activity in inhibiting ECM deposition in IPF-fibroblasts (fibulin-1 MFI)). Conditions: Homo sapiens, 72 h, 10 μM, TGFβ1 1 ng/ml, MFI, one or two different IPF-phLFs (n=1-2).
Format: cell-based
Experimental: phLFs were cultured in DMEM F-12 medium with 20% fetal bovine serum (FBS) and antibiotic supplement as mentioned above. Cells were seeded with 6000 cells/well in 384-well CellCarrier plates (Perkin Elmer, Cat #6007550). Following overnight incubation, cells were starved in serum-reduced medium (1% FBS with 0.1 mM 2-phosphoascorbate (Sigma, Cat #49752)) for 24 h. Afterwards, cells were treated with TGFβ1 (1 ng/ml) or vehicle, and additionally small molecules or appropriate vehicle controls were added. After 72 h of incubation, medium was changed for starving medium with 1 μg/mL AlexaFluor-488 fluorophore conjugated anti-collagen-type-5 antibodies (SantaCruz, Clone C-5, Cat #sc-166155 AF488), 0.66 μg/mL AlexaFluor-555 fluorophore conjugated anti-collagen-type-1 antibodies (Rockland, Cat #600-401-103-0.1), and 1 μg/mL AlexaFluor-637 fluorophore conjugated anti-fibulin 1 antibodies (SantaCruz, Clone C-5, Cat #sc-25281 AF647) and 1 μg/mL Hoechst H33342 (Sigma). Fluorescenceconjugation of the collagen type 1 antibody was done by using the AlexaFluor-555 Protein Labeling Kit (Invitrogen, Cat #A20174) according to manufacturer's instructions. Labeling efficacy was controlled by photometrical means.
Following four hours of incubation, cells were washed three times with PBS and fixed with paraformaldehyde (PFA). For automated liquid handling in 384 well plates, an INTEGRA Assist Plus (INTEGRA, Zizers, Switzerland) equipped with an INTEGRA Viaflo 1I pipette (INTEGRA, Zizers, Switzerland, Cat #4642), 125 μL GripTips™ pipette tips (INTEGRA, Zizers, Switzerland, Cat #6464) and sterile reagent reservoirs (INTEGRA, Cat #4311) were applied. All automated pipetting steps with the INTEGRA Assist Plus were performed at 9.5 μL/s in order to ensure proper integrity and attachment of the deposited ECM to the culturing surface within the wells of the 384-well plates. During cell seeding the automated liquid handling was performed at 89.3 μL/s. Removal of liquids from the well-plates was done by manually inverting the plates.
(§1) Following fixation, the automated imaging was achieved by using aconfocal laser scanning microscope (LSM710, Zeiss) with automated focus detection for three-dimensional image acquisition (1024 px×1024 px×9 px which equals a dimension of 1417 μm×1417 μm×16 μm). For post-acquisition analysis images were imported into IMARIS software (Bitplane) and volume detection or alternatively quantification of the mean fluorescence intensity, as well as Hoechst-stained cell nuclei were automatically counted by using Imaris' spot detection algorithm.
Cells were seeded with 6000 cells/well in 384-well CellCarrier plates. After overnight incubation, cells were starved in serum-reduced medium (1% FBS with 0.1 mM 2-phosphoascorbate for 24 h). Then, phLFs were treated with TGFβ1 (1 ng/ml) or vehicle, and incubated together with synthesized N23Ps (10 μM) or appropriate vehicle controls. After 72 h of incubation, medium was changed for starvation medium with 1 μg/mL AlexaFluor-637 fluorophore conjugated anti-fibulin 1 antibodies (SantaCruz, Clone C-5, Cat #sc-25281 AF647) and 1 μg/mL Hoechst H33342 (Sigma). Following four hours of incubation, cells were washed three times with PBS and fixed with paraformaldehyde (PFA). Following fixation, the automated imaging was achieved by using a confocal laser scanning microscope (LSM710, Zeiss) with automated focus detection for three-dimensional image acquisition (1024 px×1024 px×9 px which equals a dimension of 1417 μm×1417 μm×16 μm). For post-acquisition analysis images were imported into IMARIS software (Bitplane) and quantified for the mean fluorescence intensity, as well as Hoechst-stained cell nuclei were automatically counted by using Imaris' spot detection algorithm.
Assessment of ECM inhibition I: Mean fluorescence intensity (MFI) values represented the degree of fibulin-1 ECM deposition in three different IPF-phLFs (n=3). […]
CCCCOc1ccccc1NC(=O)/C=C/c1ccc2c(c1)OC(F)(F)O2 [Example 6] was tested, and the inhibition at 10 µM was 20 to 60%.
With O=C(/C=C/c1ccc2c(c1)OC(F)(F)O2)Nc1ccc(F)c(F)c1OCCC1CC1 [Example 156, (E)-N-(2-(2-cyclopropylethoxy)-3,4-difluorophenyl)-3-(2,2-difluorobenzo[d][1,3]dioxol-5-yl)acrylamide] the inhibition at 10 µM was 60 to 90%.
In the case of CCCCOc1ccccc1NC(=O)/C=C/c1ccc2nonc2c1 [Example 166, (E)-3-(benzo[c][1,2,5]oxadiazol-5-yl)-N-(2-butoxyphenyl)acrylamide], the inhibition at 10 µM was 20 to 60%.
C#CCCCOc1ccc(/C=C/C(=O)Nc2ccccc2OCCC2(C)N=N2)cc1 [Example 168, (E)-N-(2-(2-(3-methyl-3H-diazirin-3-yl)ethoxy)phenyl)-3-(4-(pent-4-yn-1-yloxy)phenyl)acrylamide] showed an inhibition at 10 µM of 60 to 90%.
For CCCCOc1ccccc1NC(=O)/C=C/c1ccc2[nH]c(C)nc2c1 [Example 161, (E)-N-(2-butoxyphenyl)-3-(2-methyl-1H-benzo[d]imidazol-5-yl)acrylamide], the inhibition at 10 µM was greater than 90%.
COc1ccc(/C=C/C(=O)Nc2ccccc2OCCCC2CC2)cc1 [Example 60, (E)-N-(2-(3-cyclopropylpropoxy)phenyl)-3-(4-methoxyphenyl)acrylamide] showed an inhibition at 10 µM greater than 90%.

Same assay, conditions: Homo sapiens, 72 h, 10 μM, TGFβ1 1 ng/ml, MFI, three different IPF-phLFs (n=3)
CCCCOc1ccccc1NC(=O)/C=C/c1ccc2c(c1)OC(F)(F)O2 [Example 6] was tested, and the inhibition at 10 µM was 60 to 90%.
In the case of COc1ccc(/C=C/C(=O)Nc2ccccc2Oc2ccccc2)cc1 [Example 3, (E)-3-(4-methoxyphenyl)-N-(2-phenoxyphenyl)acrylamide], the inhibition at 10 µM was greater than 90%.
CCCCOc1ccccc1NC(=O)/C=C/c1ccc2occc2c1 [Example 37, (E)-3-(benzofuran-5-yl)-N-(2-butoxyphenyl)acrylamide] gave an inhibition at 10 µM greater than 90%.
With CCCCOc1ccccc1N(C)C(=O)/C=C/c1ccc(OC)c(OC)c1 [Example 67] the inhibition at 10 µM was greater than 90%.
For COc1ccc(/C=C/C(=O)Nc2ccccc2OCc2ccc(F)cc2)cc1 [Example 5, (E)-N-(2-((4-fluorobenzyl)oxy)phenyl)-3-(4-methoxyphenyl)acrylamide], the inhibition at 10 µM was greater than 90%.
Molecule COc1ccc(/C=C/C(=O)Nc2ccccc2OCCCC(F)(F)F)cc1 [Example 29, (E)-3-(4-methoxyphenyl)-N-(2-(4,4,4-trifluorobutoxy)phenyl)acrylamide] has an inhibition at 10 µM of 20 to 60%.
Work on CCCCOc1ccccc1NC(=O)/C(C)=C/c1ccc(OC)cc1 [Example 79, (E)-N-(2-butoxyphenyl)-3-(4-methoxyphenyl)-2-methylacrylamide] yielded an inhibition at 10 µM of 60 to 90%.
CCCCOc1ccccc1NC(=O)/C=C/c1ccc(OCC)cc1 [Example 20, (E)-N-(2-butoxyphenyl)-3-(4-ethoxyphenyl)acrylamide] showed an inhibition at 10 µM of 60 to 90%.
In the case of CCCCOc1ccccc1NC(=O)/C=C/c1cc(F)c(OC)c(F)c1 [Example 33, (E)-N-(2-butoxyphenyl)-3-(3,5-difluoro-4-methoxyphenyl)acrylamide], the inhibition at 10 µM was 60 to 90%.
CCCCOc1ccccc1NC(=O)/C=C/c1ccc(OC(F)F)cc1 [Example 11, (E)-N-(2-butoxyphenyl)-3-(4-(difluoromethoxy)phenyl)acrylamide] gave an inhibition at 10 µM of 60 to 90%.
Molecule COc1ccc(/C=C/C(=O)Nc2ccccc2OCc2ccccc2)cc1 [Example 12, (E)-N-(2-(benzyloxy)phenyl)-3-(4-methoxyphenyl)acrylamide] has an inhibition at 10 µM greater than 90%.
Molecule CCCCOc1ccccc1NC(=O)/C=C/c1ccc2c(c1)CCO2 [Example 34, (E)-N-(2-butoxyphenyl)-3-(2,3-dihydrobenzofuran-5-yl)acrylamide] has an inhibition at 10 µM greater than 90%.
CCCCOc1ccccc1N(C)C(=O)/C=C/c1ccc(OCC)cc1 [Example 71, (E)-N-(2-butoxyphenyl)-3-(4-ethoxyphenyl)-N-methylacrylamide] showed an inhibition at 10 µM of 20 to 60%.
Molecule CCCCOc1cc(F)ccc1NC(=O)/C=C/c1ccc(OC)cc1 [Example 31, (E)-N-(2-butoxy-4-fluorophenyl)-3-(4-methoxyphenyl)acrylamide] has an inhibition at 10 µM of 60 to 90%.

What follows are molecules tested on ECM deposition of collagen I, collagen V and fibulin 1 by phLFs+TGFβ1 (assay: 3D ECM deposition assay (collagen I, collagen V, fibulin 1), dose-response and live imaging). Conditions: phLFs+TGFβ1+EDHB.
Format: cell-based, human
Experimental: phLFs were cultured in DMEM F-12 medium with 20% fetal bovine serum (FBS) and antibiotic supplement as mentioned above. Cells were seeded with 6000 cells/well in 384-well CellCarrier plates (Perkin Elmer, Cat #6007550). Following overnight incubation, cells were starved in serum-reduced medium (1% FBS with 0.1 mM 2-phosphoascorbate (Sigma, Cat #49752)) for 24 h. Afterwards, cells were treated with TGFβ1 (1 ng/ml) or vehicle, and additionally small molecules or appropriate vehicle controls were added. […] Fluorescenceconjugation of the collagen type 1 antibody was done by using the AlexaFluor-555 Protein Labeling Kit (Invitrogen, Cat #A20174) according to manufacturer's instructions. […]
as §1, with “algorithm. […]” for “algorithm.”
In the case of CCOC(=O)c1ccc(O)c(O)c1 [EDHB, Ethyl-3,4-dihydroxy-benzoate], the “ECM deposition of collagen I, collagen V and fibulin 1” value was “inhibits the ECM deposition”.

What follows are molecules tested on collagen I, collagen V, fibulin 1, fibronectin, αSMA protein in phLFs (assay: Western blotting of ECM proteins and αSMA in phLFs (lysates and medium supernatants)). Conditions: concomitant treatment with TGFβ1.
Format: cell-based, human
Experimental: Cells were scraped off the plastic dish directly into 200 μl ice-cold RIPA buffer containing 1× Roche complete mini protease inhibitor cocktail. After incubating the samples for 30 minutes on ice, insoluble material was removed by centrifugation at 14.000 g for 15 minutes at 4° C. and the supernatant was further processed. Samples were mixed with 50 mM Tris-HCl, pH 6.8, 100 mM DTT, 2% SDS, 1% bromphenol blue, and 10% glycerol, and proteins were separated using standard SDS-10% PAGE. For immunoblotting, proteins were transferred to PVDF (Millipore (Billerica, MA, (USA)), 0.45 μm or 0.2 μm) membranes, which were blocked with 5% milk in TBST (0.1% Tween 20 in TBS) and incubated with primary, followed by HRP-conjugated secondary antibodies over night at 4° C. and at room temperature for 1 hour, respectively. For immunoblotting the following primary antibodies were used: monoclonal mouse anticollagen type 5 (1 mg/mL) from […] (Cat #sc-166155), polyclonal rabbit anti-collagen type 3 (1 mg/mL) from Rockland (Cat #600-401-105), polyclonal rabbit anti-collagen type 1 (1 mg/mL) from Rockland (Cat #600-401-103-0.5), monoclonal mouse anti-fibulin 1 (1 mg/mL) from SantaCruz (Cat #sc-25281), polyclonal rabbit anti-fibronectin (1 mg/mL) from SantaCruz (Cat #sc-9068), and monoclonal mouse anti-p-actin-peroxidase (AC-15, Sigma, 1:10000). Goat anti-rabbit and goat anti-mouse IgG conjugated to horseradish peroxidase (Cell Signaling, 1:10000) were applied as secondary antibodies. CXCL/IL-8 concentrations were determined using Human IL-8/CXCL8 DuoSet ELISA (DY208-05) according to the manufacturer's protocol.
For CCOC(=O)c1ccc(O)c(O)c1 [EDHB, Ethyl-3,4-dihydroxy-benzoate], the “expression of intracellular collagen I, collagen V and fibulin 1” value was “statistically significant suppression” and the “secreted collagen I” value was “significant suppression”.

Same assay, conditions: medium supernatants of phLFs
With C[C@H]1CCC/C=C/[C@@H]2C[C@H](O)C[C@H]2[C@H](O)/C=C/C(=O)O1 [BrefeldinA] the “secretion of collagen I and fibronectin” value was “inhibited the secretion”.

From patent publication US20240294465A1, “NOVEL ANTI-FIBROTIC DRUGS” (HELMHOLTZ ZENTRUM MUNCHEN - DEUTSCHES FORSCHUNGSZENTRUM FUR …, priority 2021, published 2024)
